Reference: patent US20240423944A1, “USE OF LAURYL GALLATE (LG) AS A HEMOSTATIC AGENT” (CENTRE DE BIOTECHNOLOGIE DE SFAX (CBS), priority 2021, published 2024)

Columns and labels:
[1] = tested on: washed platelets from healthy donors; assay: Measurement of LDH leakage from washed platelets; type: cell-based, human; settings: low doses of LG 0.1 mM), 10 min
Protocol: Washed platelets from healthy donors were treated with different doses of LG or control (DMSO) for 10 minutes at 37° C. Following, platelets were pelleted by centrifugation at 1800×g for 3 min. Supernatants were used to detect Lactate dehydrogenase (LDH) release by colorimetric method (Thermo Fisher Scientific), according to the manufacturer's protocol. The assay was performed in endpoint time of increased of formazan absorbance at 680 nm for 30 min. Maximal LDH leakage was obtained with lysis buffer. Results, expressed as percentage of LDH leakage are mean±SEM (n=6) (** p<0.01, *** p<0.001 according to Kruskal-Wallis test).

[2] = tested on: αIIbβ3 integrin; assay: Flow cytometry of αIIbβ3 activation with PAC-1 antibody; type: cell-based, human
Protocol: (§1) Washed platelets were pre-incubated with LG or DMSO for 5 and 10 min at 37° C. Samples were then incubated for 15 min at room temperature in the dark with anti-CD62P, anti-CD63 or monoclonal antibody PAC-1. This last recognize and binds only to the active form of integrin αIIbβ3 complex. Analysis of respective protein was performed using a FACS-Verse cytometer BD Biosciences). Platelets were identified on the basis of their Forward Scatter and Side Scatter properties.

[3] = tested on: phosphatidylserine (PS); assay: Phosphatidylserine exposure by annexin V binding (flow cytometry); type: cell-based, human; settings: LG 0.05 mM
Protocol: For phosphatidylserine exposure, washed platelets were pre-incubated with LG 0.05 mM or DMSO for 5 min at 37° C. Dilute the activated or non-activated sample with the 1× binding buffer provided in the kit to a final volume of 100 μl and add 5 μl of Annexin V AF647 (Clinisciences) for 15 min at 37° C. in the dark. The binding reaction is stopped with 500 ill of 1× binding buffer (Ramstrom 2010). Analysis was performed using LSR Fortessa cytometer (BD Biosciences).

[4] = tested on: human whole blood; assay: Thrombus formation on immobilized collagen under flow conditions; type: cell-based; settings: LG 0.05 mM
Protocol: This method was performed as previously described (Gratacap et al, 2009). Briefly, biochips with micro-capillaries (Vena8Fluoro+®, Cellix) were coated with collagen type I. Epi-fluorescence microscope (Axio Observer; Carl Zeiss) allowed direct visualization of platelet adhesion and aggregation which was recorded with ORCA-R2 camera (Hamamatsu). Whole blood was collected into 13.6 UI/m1 lithium heparinate and platelets were labeled with DIOC6(Life Technologies, 2 μM, 10 min at 37° C.) LG (0.05 mM) was then added to blood just prior to injection through a micro-capillary at shear rate of 1500 s^−1. Thrombus formation was visualized with a 40× long working distance objective in real time. The range was fixed to 80 μm and the interval to 1.5 μm. The acquisition rate was chosen at one frame every 30 sec divided into two positions. Quantification of surface coverage was performed off-line using ImageJ software.

[5] = tested on: tumoral cell lines; settings: Ortega et al, 2003; cited from earlier work
[6] = tested on: Src kinases; assay: Western blotting of Src kinase cleavage; type: cell-based, human
Protocol: (§2) Washed platelets were treated with LG (LC and HC) or DMSO. Aliquots were taken at 0, 2.5, 5 and 10 min, lysed with sample buffer and boiled. Proteins were loaded on to sodium dodecyl sulfate 10% polyacrylamide gel and, after electrophoresis, transferred to a nitrocellulose membrane. […] Phospho antibodies were diluted in TBS-Tween 5%-BSA (w/v) and incubated overnight and the others for 2 h. After washing, each blot was incubated with the corresponding horseradish peroxidase-conjugated anti-mouse or anti-rabbit. Immunoblots were developed using Super signal chemiluminescent substrate (Pierce, Rockford, IL) and analyzed with chemidoc Imaging system (Biorad).

[7] = tested on: washed human platelets; assay: Calcium mobilization with CalciFluor 8-AM and flow cytometry; type: cell-based
Protocol: Platelet calcium flux was adapted from the work described by (Monteiro et al. 1999). Washed platelets re-suspended at 10^8/ml in platelet wash buffer were incubated with the calcium indicator dyes Calcifluor 8-AM (R&D system) at 5 μM and Pluronic F-127 0.02% v/v (Sigma Aldrich) for 30 min at 37° C. The platelets were washed twice with platelet wash buffer, re-suspended in Tyrode's buffer containing EGTA (1 mM) or BAPTA-AM (10 μM). Changes in cytosolic calcium concentration were associated with increased or decreased fluorescence emission of Calcifluor 8-AM (emission wavelengths of 500-570 nm). These changes were analyzed using flow cytometry BD LSRII Fortessa. Results were expressed in fold increased Median Fluorescence. The determination of internal calcium concentration in platelet was described by Grynkiewicz et al. (1985).

[8] = tested on: washed human platelets; assay: Washed platelet aggregation by turbidimetry (light transmission aggregometer); type: cell-based
Protocol: Healthy volunteers had abstained from Aspirin and others anti-inflammatory drugs for at least […] prior to blood sampling. Written informed consent was obtained from all donors. Blood samples were collected into sodium citrate 3.2% and centrifuged for 10 min at 190 g. The supernatant thus obtained was the platelet-rich plasma (PRP).
Washed platelets were prepared from centrifuged PRP previously supplemented with rostacyclin (0.5 μM) to avoid platelet activation. The pellet was suspended in buffer A (pH 6.8) containing 140 mM NaCl, 5 mM KCl, 5 mM KH2PO4, 1 mM MgSO4, 10 mM N-2-hydroxyethylpiperazine-N′-2-ethanesulfonic acid, 5 mM glucose and 0.35% bovine serum albumin (w/v). The same buffer containing 1 mM CaCl2 and apyrase but without BSA (adjusted to pH 7.4) was added to the final suspension to reach 2×10^8 platelets/ml.
Different concentrations of LG were added to 270 μl of PRP or washed platelets from an initial concentration of 250 mM. Platelet aggregation was recorded using a light transmission aggregometer (SD Medical). The percentage of transmittance of PRP or washed platelets was recorded as 0%, and that of the appropriate PPP or buffer was recorded as 100% respectively. Each condition was repeated for many healthy volunteers. Platelets treated with DMSO serves as negative control. Potentiation between low doses of LG and collagen or TRAP to aggregate platelets was also determined.

[9] = tested on: CD63; assay: Flow cytometry of dense granule secretion marker CD63; type: cell-based, human; settings: following addition of LG
Protocol: as §1

[10] = tested on: Gram-positive bacteria like Bacillus subtilis or Streptococcus mutans; settings: cited from earlier work
[11] = tested on: animal viruses; settings: Hurtado et al, 2008; cited from earlier work
[12] = tested on: fungi; settings: Kubo et al, 2003; cited from earlier work
[13] = tested on: Wistar rats; assay: Rat tail bleeding time; type: in vivo
Protocol: Wistar rats of either gender weighing between 200 and 250 g were purchased from the Central Pharmacy of Tunisia. Animal handling conforms to the European Convention (CE. no. 123). Animals were fed a standard chow diet and had free access to water. They were housed five rats in a cage (0.12 m^2). Bleeding time was measured by transection of the tail, 1 cm from the tip, of phenobarbital anesthetized rats (25 mg/kg. i.p). Immediately after transection, the tail was dipped for 5 seconds into LG solution (5, 50, or 100 mg/ml of LG dissolved in ethanol) or vehicle (ethanol) and then placed carefully on Whatman paper. Blood was allowed to drop on filter paper which was moved gently every 30 seconds until no more blood was dropped. […] The bleeding time was also determined for a lot of rats not treated with any solution (control) and for another treated with ethanol to test the effect of the solvent. Tranexamic acid (100 mg/ml) was used as a standard anti-hemorrhagic drug under the same conditions. Each condition was repeated for six rats.

[14] = tested on: CD62-P (P-selectin); assay: Flow cytometry of α-granule secretion marker CD62-P; type: cell-based, human
Protocol: as §1

[15] = tested on: washed platelets from healthy donors; assay: Scanning electron microscopy of platelets; type: cell-based, human; settings: 10 min, non-shaking
Protocol: Platelets are treated with TRAP 25 μM, LG (LC and HC) during 10 minutes. They were fixed in 2.5% glutaraldehyde in 0.1 M Sorensen phosphate buffer (pH 7.4) for at least 1 h at 37° C. After sedimentation, the pellets were re-suspended in water and made to adhere on poly-lysine coated glass coverslips. Platelets were then dehydrated in a graded ethanol series and dried by critical point drying with a Leica EM CPD 300. The samples were coated with 6 nm Platinium on a Leica EM Med 020 before being examined on a FEI Quanta 250 FEG scanning electron microscope, at an accelerating voltage of 5 kV (Valet 2021).

[16] = tested on: Akt; assay: Western blotting of Akt phosphorylation (Ser473); type: cell-based, human
Protocol: as §2

[17] = tested on: p38 MAPK; assay: Western blotting of p38 MAPK phosphorylation (Thr180/Tyr182); type: cell-based, human
Protocol: as §2

[18] = tested on: platelets; settings: Hongyan and Richard, 2004; cited from earlier work

## CCCCCCCCCCCCOC(=O)c1cc(O)c(O)c(O)c1 [LG, Dodecyl 3,4,5-trihydroxybenzoate]
[1]
  LDH release from platelets: no significant LDH release
[2]; LG 0.05 mM versus 50 μM TRAP
  activation of αIIbβ3, lower than that induced by 50 μM TRAP: 50%
[2]; particularly at 0.05 mM
  expression of the active form of the fibrinogen receptor αIIbβ3: significant increase
[3]
  exposure of PS on the platelet surface (annexin V binding): significant exposure
[4]; collagen matrix, arterial shear rate
  surface covered by platelets: significantly increased
[4]; collagen-coated microcapillaries, shear rate 1500 s^−1
  thrombus volumes compared to control: significantly increased
[4]; in several experiments, recording 300 s
  time to capillary occlusion: < 300 s
[5]
  anti-proliferative and pro-apoptotic activity: anti-proliferative and pro-apoptotic activity
[6]; LG 0.75 mM, substantial at 10 min
  Src-kinase cleavage: induced a cleavage of Src-kinase
[6]; low dose of LG (0.05 mM)
  Src-kinase cleavage: no impact
[7]; LG 0.05 mM, after 2.5 min
  cytoplasmic free calcium concentration: 230 ± 25 nM
[7]; LG 0.75 mM, at 0.5 min
  free cytosolic calcium: 105 ± 15 nM
[8]; LG 0.05 mM alone, washed human platelets, fast and stable
  maximal platelet aggregation: ~80%
[8]; high concentrations of LG (0.75 mM), slow response
  maximal platelet aggregation: ~50%
[8]; increasing concentrations, first peak 0.05 mM, decrease until 0.2 mM, plateau 0.75 to 1 mM
  shape of dose-response of platelet aggregation: non-monotonic dose-response
[9]
  plasma membrane expression level of CD63: significantly increased
[10]
  antibacterial activity: antibacterial activity
[11]
  antiviral activity: potent antiviral activity
[12]
  antifungal activity: does not have antifungal activity
[13]; LG 50 mg/ml versus tranexamic acid 100 mg/ml in ethanol
  efficiency on bleeding time compared with tranexamic acid: significantly more efficient
[13]; tail dipped 5 seconds, 50 mg/ml LG in ethanol
  tail bleeding time: dramatically reduced
[14]; LG 0.05 mM
  expression of CD62-P on the plasma membrane: markedly increased
[14]; LG 0.75 mM
  expression of CD62-P on the plasma membrane: markedly increased
[14]; versus 50 μM TRAP
  α-granule secretion intensity compared with 50 μM TRAP: slightly lower
[15]; LG 0.05 mM
  platelet morphology: induced platelet shape change and filopodia formation
[15]; LG 0.75 mM
  platelet morphology: membrane structure was strongly modified with a grainy appearance and apparent pores formation
[16]; LG 0.05 mM
  Akt phosphorylation: rapid activation
[16]; LG 0.75 mM
  Akt activation: at later times
[17]; LG 0.05 mM
  p38 MAPK phosphorylation: rapid activation
[17]; LG 0.75 mM
  p38 MAPK activation: at later times

## CCCOC(=O)c1cc(O)c(O)c(O)c1 [propyl gallate]
[18]
  platelet aggregation: induce platelet aggregation

## collagen [reference compound]
[8]; collagen 0.15 μg/ml alone
  platelet aggregation by agonist alone: unable to trigger detectable platelet aggregation
